Read-outs that look alike come from different tables or passages of the source.
Assays:
[1] = target: T1, human A1 subtype adenosine receptor (Homo sapiens, UniProt P30542); assay: Affinity towards the adenosine A1 receptor ([3H]-DPCPX binding, CHO-K1 membranes); details: read-out: A1 Ki (nM) ± sd
T1 construct: expressed in transfected cells; host or cells: CHO-K1
T1 sequence (P30542 1-326): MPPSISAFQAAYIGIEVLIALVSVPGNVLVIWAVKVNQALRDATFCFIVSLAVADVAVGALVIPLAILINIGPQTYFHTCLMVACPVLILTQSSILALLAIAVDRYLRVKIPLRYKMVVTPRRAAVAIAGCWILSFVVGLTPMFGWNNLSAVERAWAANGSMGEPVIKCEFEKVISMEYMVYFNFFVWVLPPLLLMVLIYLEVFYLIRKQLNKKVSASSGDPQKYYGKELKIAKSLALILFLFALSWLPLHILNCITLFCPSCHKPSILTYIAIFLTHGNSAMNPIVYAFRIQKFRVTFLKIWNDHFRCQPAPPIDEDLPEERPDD

[2] = target: GABAb (Homo sapiens, UniProt Q9UBS5); assay: Receptor binding study, GABAb; details: mean values, n = 2, read-out: percent inhibition of control specific binding
[3] = system: P2X; assay: Receptor binding study, P2X; details: 1 μM; mean values, n = 2
[4] = target: H1 (central) (Cavia porcellus, UniProt P31389); assay: Receptor binding study, H1 (central); details: mean values, n = 2, read-out: percent inhibition of control specific binding
[5] = target: D1 (Homo sapiens, UniProt P21728); assay: Receptor binding study, D1; details: mean values, n = 2, read-out: percent inhibition of control specific binding
[6] = system: P2Y; assay: Receptor binding study, P2Y; details: 1 μM; mean values, n = 2
[7] = target: β2 (Homo sapiens, UniProt P07550); assay: Receptor binding study, β2; details: mean values, n = 2, read-out: percent inhibition of control specific binding
[8] = system: BZD (central); assay: Receptor binding study, BZD (central); details: 1 μM; mean values, n = 2
[9] = target: 5-HT6 (h) (Homo sapiens, UniProt P50406); assay: Receptor binding study, 5-HT6; details: mean values, n = 2, read-out: percent inhibition of control specific binding
[10] = target: M4 (Homo sapiens, UniProt P08173); assay: Receptor binding study, M4; details: mean values, n = 2, read-out: percent inhibition of control specific binding
[11] = system: CD1 male mice; assay: Capacity of the products to induce catalepsy in mice; type: in vivo; details: endoperitoneal, 30 minutes prior to the test
Method: 10 CD1 male mice were used per group. For this test, a steel bar, 10 cm long, was placed at a height of 4.5 cm above the support surface. Onto this, were placed the front legs of the animals. The presence of catalepsy was determined by measuring the time (in seconds) the animal remained in the posture placed. Later, this parameter was placed relatively, on a scale of rising values (0 to 5) through which, the degree of catalepsy determined in both control animals and in these subjected to treatment with the substances under test could be proportionately expressed.
The reference products and these in this study were administered endoperitoneally, in a volume of 10 ml/kg, 30 minutes prior to the test.
Except for CGS 21680 (reference compound) which was dissolved in 0.9% NaCl, the products in the study and the control antagonist ZM 241385 were solubilised in DMSO and then diluted in Cremofor EL and 0.9% NaCl (final concentrations: DMSO 15%, Cremofor EL 15%, NaCl 0.9%).

[12] = target: β1 (Homo sapiens, UniProt P08588); assay: Receptor binding study, β1; details: mean values, n = 2, read-out: percent inhibition of control specific binding
[13] = system: GABAtransporter; assay: Receptor binding study, GABA transporter; details: 1 μM; mean values, n = 2
[14] = target: D5 (h) (Homo sapiens, UniProt P21918); assay: Receptor binding study, D5; details: mean values, n = 2, read-out: percent inhibition of control specific binding
[15] = target: 5-HT transporter (Homo sapiens, UniProt P31645); assay: Receptor binding study, 5-HT transporter; details: read-out: percent inhibition of control specific binding
[16] = system: α1(non-selective); assay: Receptor binding study, α1; details: 1 μM; mean values, n = 2
[17] = target: 5-HT2A (Homo sapiens, UniProt P28223); assay: Receptor binding study, 5-HT2A; details: mean values, n = 2, read-out: percent inhibition of control specific binding
[18] = system: ADOtransporter; assay: Receptor binding study, ADO transporter; details: 1 μM; mean values, n = 2
[19] = target: T2, human A2b receptor (Homo sapiens, UniProt P29275); assay: Affinity towards the adenosine A2b receptor ([3H]-DPCPX binding, HEK 293 membranes); details: read-out: A2b Ki (nM) ± sd
T2 construct: expressed in transfected cells; host or cells: HEK 293
T2 sequence (P29275 1-332): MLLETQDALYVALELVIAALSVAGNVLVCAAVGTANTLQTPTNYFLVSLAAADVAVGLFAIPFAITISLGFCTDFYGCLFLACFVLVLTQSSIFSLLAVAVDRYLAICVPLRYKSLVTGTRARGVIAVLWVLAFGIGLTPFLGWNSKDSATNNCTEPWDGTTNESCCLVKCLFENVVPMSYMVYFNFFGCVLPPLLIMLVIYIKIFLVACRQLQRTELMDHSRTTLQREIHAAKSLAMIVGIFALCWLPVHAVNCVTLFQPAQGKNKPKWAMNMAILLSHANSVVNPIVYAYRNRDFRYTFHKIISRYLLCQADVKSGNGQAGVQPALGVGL
Method: The interactive capacity of each product towards the adenosine A2b receptor was evaluated using membranes from HEK 293 cells stably expressing the human A2b receptor subtype exclusively.
Non-specific binding was measured in the presence of NECA (50 μM).
In binding studies for each compound, eight different concentrations (from 10^−5 M to 10^−12 M) were evaluated in order to obtain competition curves. By means of non-linear regression analysis of the competition curves, the IC50 values, which express the binding affinity of each product, were determined. Using the Cheng Prusoff equation (Ki=IC50/1+(L/Kd)) Ki values were calculated through which the affinity of each product studied, for the receptor investigated, is expressed.

[20] = target: NE transporter (Homo sapiens, UniProt P23975); assay: Receptor binding study, NE transporter; details: mean values, n = 2, read-out: percent inhibition of control specific binding
Sequence of NE transporter (P23975 whole entry): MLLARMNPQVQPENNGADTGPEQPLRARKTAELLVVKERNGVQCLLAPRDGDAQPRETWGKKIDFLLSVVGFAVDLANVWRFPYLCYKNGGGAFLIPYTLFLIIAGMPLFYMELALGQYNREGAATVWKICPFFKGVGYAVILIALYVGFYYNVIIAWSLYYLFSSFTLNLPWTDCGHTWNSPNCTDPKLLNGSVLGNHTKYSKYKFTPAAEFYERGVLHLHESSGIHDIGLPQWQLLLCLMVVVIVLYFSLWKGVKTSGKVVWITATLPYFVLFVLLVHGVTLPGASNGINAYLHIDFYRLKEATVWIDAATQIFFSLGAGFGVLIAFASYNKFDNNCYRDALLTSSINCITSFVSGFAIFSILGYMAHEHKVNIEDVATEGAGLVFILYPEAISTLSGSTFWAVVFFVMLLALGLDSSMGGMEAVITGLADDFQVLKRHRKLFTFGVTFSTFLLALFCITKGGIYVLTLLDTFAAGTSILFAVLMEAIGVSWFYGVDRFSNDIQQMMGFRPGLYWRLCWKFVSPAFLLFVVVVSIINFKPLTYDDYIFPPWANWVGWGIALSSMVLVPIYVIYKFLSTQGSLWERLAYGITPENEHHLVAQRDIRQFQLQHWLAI

Sequence of β1 (P08588 whole entry): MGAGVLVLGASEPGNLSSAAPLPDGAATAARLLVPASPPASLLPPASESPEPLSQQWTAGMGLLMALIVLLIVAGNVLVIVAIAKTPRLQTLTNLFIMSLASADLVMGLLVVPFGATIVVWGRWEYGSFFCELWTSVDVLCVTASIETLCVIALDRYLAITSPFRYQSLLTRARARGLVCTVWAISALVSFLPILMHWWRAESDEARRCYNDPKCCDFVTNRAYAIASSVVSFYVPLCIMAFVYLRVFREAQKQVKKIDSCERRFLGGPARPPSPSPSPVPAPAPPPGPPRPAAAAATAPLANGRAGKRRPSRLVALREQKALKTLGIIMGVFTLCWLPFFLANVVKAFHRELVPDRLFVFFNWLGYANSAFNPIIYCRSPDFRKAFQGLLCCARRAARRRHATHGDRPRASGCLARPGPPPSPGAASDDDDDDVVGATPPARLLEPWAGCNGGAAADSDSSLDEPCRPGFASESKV
Sequence of D5 (h) (P21918 whole entry): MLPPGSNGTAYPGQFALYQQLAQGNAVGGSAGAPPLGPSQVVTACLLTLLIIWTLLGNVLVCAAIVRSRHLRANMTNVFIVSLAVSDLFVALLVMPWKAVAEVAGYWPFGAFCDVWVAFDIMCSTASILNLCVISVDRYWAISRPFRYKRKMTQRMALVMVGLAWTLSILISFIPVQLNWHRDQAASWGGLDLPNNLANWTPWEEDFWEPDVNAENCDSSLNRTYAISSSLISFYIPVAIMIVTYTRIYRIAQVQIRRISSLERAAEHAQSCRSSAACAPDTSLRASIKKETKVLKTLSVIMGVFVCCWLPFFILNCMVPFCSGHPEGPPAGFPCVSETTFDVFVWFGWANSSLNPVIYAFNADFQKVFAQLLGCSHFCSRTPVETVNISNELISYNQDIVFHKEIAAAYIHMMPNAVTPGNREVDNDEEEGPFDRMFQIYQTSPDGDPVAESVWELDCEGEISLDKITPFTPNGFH
Sequence of GABAb (Q9UBS5 15-961 limits assumed): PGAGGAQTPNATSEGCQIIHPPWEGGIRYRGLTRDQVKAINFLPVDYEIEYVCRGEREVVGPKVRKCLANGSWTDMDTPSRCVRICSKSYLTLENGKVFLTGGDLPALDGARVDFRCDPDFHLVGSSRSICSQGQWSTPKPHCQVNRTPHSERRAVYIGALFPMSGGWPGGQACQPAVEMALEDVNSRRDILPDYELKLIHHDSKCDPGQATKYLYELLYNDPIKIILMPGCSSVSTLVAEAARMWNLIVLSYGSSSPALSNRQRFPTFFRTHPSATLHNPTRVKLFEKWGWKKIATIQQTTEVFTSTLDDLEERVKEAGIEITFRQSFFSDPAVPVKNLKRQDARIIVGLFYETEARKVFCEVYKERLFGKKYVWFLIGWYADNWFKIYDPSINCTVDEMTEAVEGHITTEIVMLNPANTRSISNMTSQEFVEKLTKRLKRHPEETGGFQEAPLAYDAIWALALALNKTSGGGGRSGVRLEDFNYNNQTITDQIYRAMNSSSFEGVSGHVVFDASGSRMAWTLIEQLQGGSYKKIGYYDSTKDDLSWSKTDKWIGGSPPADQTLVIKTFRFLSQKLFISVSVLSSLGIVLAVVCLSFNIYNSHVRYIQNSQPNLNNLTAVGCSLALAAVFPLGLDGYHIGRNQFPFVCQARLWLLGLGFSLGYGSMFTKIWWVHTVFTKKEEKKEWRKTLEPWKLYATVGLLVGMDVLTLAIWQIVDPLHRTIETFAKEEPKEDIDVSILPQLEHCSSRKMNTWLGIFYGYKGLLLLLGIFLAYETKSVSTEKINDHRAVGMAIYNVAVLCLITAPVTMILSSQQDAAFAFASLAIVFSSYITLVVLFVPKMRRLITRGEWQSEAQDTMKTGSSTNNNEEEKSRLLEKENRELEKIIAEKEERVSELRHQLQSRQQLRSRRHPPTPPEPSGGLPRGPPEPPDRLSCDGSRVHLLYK
Sequence of GABAb (O75899 42-941 partner): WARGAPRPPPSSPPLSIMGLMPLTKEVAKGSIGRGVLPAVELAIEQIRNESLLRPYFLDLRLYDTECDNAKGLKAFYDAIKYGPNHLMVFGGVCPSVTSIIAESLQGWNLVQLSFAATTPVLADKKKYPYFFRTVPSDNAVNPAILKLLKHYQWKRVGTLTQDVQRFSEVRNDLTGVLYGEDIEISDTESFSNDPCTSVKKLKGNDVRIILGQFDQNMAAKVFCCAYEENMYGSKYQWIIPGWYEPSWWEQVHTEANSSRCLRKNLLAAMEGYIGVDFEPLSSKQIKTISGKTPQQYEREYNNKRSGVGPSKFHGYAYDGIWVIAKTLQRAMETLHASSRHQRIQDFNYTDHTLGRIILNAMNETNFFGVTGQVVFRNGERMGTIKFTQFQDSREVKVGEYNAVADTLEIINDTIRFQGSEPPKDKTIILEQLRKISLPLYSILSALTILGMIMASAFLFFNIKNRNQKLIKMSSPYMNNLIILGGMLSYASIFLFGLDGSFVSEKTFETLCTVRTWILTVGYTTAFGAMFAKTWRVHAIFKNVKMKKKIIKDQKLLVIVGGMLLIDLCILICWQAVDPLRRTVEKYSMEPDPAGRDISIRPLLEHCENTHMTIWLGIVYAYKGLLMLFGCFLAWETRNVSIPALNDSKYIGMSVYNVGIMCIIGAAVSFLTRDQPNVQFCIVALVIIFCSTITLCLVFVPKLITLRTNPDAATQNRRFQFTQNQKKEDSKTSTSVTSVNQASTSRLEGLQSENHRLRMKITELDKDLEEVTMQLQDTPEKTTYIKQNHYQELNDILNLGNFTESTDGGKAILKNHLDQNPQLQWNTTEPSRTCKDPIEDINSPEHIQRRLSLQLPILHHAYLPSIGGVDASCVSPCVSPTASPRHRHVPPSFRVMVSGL
Sequence of D1 (P21728 whole entry): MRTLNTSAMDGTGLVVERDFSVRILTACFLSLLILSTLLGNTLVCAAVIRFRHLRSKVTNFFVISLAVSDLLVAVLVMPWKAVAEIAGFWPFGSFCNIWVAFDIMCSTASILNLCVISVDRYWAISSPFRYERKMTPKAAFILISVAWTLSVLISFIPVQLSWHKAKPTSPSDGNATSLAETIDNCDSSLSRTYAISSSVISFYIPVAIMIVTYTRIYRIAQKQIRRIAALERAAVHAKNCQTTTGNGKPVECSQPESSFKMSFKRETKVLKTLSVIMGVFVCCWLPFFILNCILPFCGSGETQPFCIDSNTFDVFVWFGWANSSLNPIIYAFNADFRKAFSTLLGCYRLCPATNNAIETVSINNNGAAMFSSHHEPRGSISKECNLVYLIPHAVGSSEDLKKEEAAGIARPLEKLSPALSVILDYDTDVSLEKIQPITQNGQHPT
Sequence of H1 (central) (P31389 whole entry): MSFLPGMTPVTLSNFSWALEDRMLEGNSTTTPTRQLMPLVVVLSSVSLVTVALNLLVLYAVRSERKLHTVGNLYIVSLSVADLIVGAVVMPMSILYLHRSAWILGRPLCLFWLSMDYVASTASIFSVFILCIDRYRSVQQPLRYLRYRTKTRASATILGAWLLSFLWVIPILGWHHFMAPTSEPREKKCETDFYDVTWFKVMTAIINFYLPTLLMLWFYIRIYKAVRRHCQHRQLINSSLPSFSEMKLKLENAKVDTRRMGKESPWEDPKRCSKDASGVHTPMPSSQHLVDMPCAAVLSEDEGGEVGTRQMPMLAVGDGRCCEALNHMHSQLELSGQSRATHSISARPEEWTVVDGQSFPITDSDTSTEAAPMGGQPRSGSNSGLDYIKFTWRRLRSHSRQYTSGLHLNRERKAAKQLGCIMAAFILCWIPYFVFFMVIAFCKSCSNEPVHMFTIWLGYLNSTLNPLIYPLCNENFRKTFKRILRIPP
Sequence of 5-HT6 (h) (P50406 whole entry): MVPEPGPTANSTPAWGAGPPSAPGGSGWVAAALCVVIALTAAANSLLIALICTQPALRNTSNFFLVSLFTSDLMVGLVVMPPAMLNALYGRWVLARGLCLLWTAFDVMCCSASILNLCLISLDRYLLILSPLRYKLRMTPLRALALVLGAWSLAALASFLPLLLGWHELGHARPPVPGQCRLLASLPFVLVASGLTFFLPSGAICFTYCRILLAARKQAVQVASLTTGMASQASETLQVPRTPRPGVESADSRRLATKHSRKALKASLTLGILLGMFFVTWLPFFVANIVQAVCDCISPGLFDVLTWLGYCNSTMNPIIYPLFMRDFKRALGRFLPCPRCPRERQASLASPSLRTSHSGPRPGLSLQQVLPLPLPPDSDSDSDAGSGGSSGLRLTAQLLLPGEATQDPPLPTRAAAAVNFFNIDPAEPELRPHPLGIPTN

| SMILES | Ki [1] [nM] | inhibition at 1 µM [2] [%] | percent inhibition of control specific binding [3] | inhibition at 1 µM [4] [%] | inhibition at 1 µM [5] [%] | percent inhibition of control specific binding [6] | inhibition at 1 µM [7] [%] | percent inhibition of control specific binding [8] | inhibition at 1 µM [9] [%] | inhibition at 1 µM [10] [%] | inhibition at 1 µM [12] [%] | percent inhibition of control specific binding [13] | inhibition at 1 µM [14] [%] | percent inhibition of control specific binding [16] | inhibition at 1 µM [17] [%] | percent inhibition of control specific binding [18] [%] | Ki [19] [nM] | inhibition at 1 µM [20] [%] | further results |
| --- | --- | --- | --- | --- | --- | --- | --- | --- | --- | --- | --- | --- | --- | --- | --- | --- | --- | --- | --- |
| CCCCc1nc(N)c2nc(-n3nccn3)n(C)c2n1 [ST 1535, 2-butyl-9-methyl-8-(2H-1,2,3-triazol-2-yl)-9H-purine-6-ylamine] | 107 ± 40 | < 10 | — (The symbol — indicates an inhibition of less than 10%.) | < 10 | < 10 | — (The symbol — indicates an inhibition of less than 10%.) | < 10 | — (The symbol — indicates an inhibition of less than 10%.) | < 10 | < 10 | < 10 | — (The symbol — indicates an inhibition of less than 10%.) | < 10 | — (The symbol — indicates an inhibition of less than 10%.) | < 10 | 24 | 627 ± 45 | < 10 | appearance of catalepsy in mice (FIG. 1) [11]: none of them brought about the appearance of catalepsy in mice; inhibition at 1 µM ([15]; 1 μM, mean values, n = 2, class symbol): < 10% |
| CCCCCc1nc(N)c2nc(-n3nccn3)n(C)c2n1 [ST 2097, 9-methyl-2-pentyl-8-(2H-1,2,3-triazol-2-yl)-9H-purine-6-ylamine] | 26.2 ± 6.55 | < 10 | — (The symbol — indicates an inhibition of less than 10%.) | < 10 | < 10 | — (The symbol — indicates an inhibition of less than 10%.) | < 10 | — (The symbol — indicates an inhibition of less than 10%.) | < 10 | < 10 | < 10 | — (The symbol — indicates an inhibition of less than 10%.) | < 10 | — (The symbol — indicates an inhibition of less than 10%.) | < 10 | 34 | 153 ± 13 | < 10 | inhibition at 1 µM [15]: 13% |

From patent publication US7528252B2, “Derivatives of triazoly-imidazopyridine useful as ligands of the adenosine A2a receptor and their use as medicaments” (Sigma-Tau Industrie Farmaceutiche Riunite S.p.A., priority 2002, dated 2009)
